Assay results reported in paper PMC5464343 (Pharmacology Research & Perspectives, 2017).

Assays:
[1] = tested on: wild‐type CYP450s 1A2, 2C8, 2C9, 2C19, 2D6, 3A4, and 3A5; experiment: Metabolite identification, wild‐type CYP450‐overexpressing HEK293 microsomes; type: in vitro ADME, human; settings: compound presented as substrate to overexpressing CYP450 microsomes
[2] = tested on: UGT2B17; settings: HLM panel; ref Sun et al. 2010; cited from earlier work
[3] = tested on: CYP2D6*2; settings: transiently expressed CYP2D6*2, bufuralol 1′‐hydroxylation; ref Sakuyama et al. (2008); cited from earlier work
[4] = tested on: CYP2C8*4; parameters: method as in Kaspera et al. (2010); settings: recombinant CYP2C8*4; ref Kaspera et al. (2010); cited from earlier work
[5] = tested on: CYP2C8*2; parameters: method as in Kaspera et al. 2010; settings: E. coli‐expressed CYP2C8*2 vs wild‐type; M‐1 and M‐23 formation; ref Kaspera et al. 2010; cited from earlier work
[6] = tested on: CYP2D6^Pro34Ser, Ser486Thr
[7] = molecular target: CYP2C9 (Homo sapiens, UniProt P11712); settings: wild‐type CYP2C9*1A; V max/K M
[8] = molecular target: T1, CYP2C8 (Homo sapiens, UniProt P10632); settings: wild‐type CYP2C8*1A; V max/K M
T1 sequence (P10632 1-490): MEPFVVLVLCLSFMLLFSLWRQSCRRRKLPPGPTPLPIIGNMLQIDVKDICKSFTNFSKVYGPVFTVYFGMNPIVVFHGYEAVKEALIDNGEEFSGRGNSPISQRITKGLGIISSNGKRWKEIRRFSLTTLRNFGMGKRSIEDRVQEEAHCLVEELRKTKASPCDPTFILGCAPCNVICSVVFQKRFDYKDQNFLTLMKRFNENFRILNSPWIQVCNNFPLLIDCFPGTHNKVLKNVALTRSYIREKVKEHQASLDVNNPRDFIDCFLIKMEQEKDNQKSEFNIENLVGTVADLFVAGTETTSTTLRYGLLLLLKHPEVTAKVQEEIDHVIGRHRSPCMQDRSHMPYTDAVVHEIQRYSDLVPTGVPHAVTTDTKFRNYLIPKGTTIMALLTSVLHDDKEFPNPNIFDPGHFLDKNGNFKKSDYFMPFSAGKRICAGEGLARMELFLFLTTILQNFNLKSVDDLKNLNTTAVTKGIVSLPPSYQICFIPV

[9] = tested on: pooled HLM; parameters: method as in Kamdem et al. 2011; settings: pooled HLM treated with ketoconazole; ref Kamdem et al. 2011; cited from earlier work
[10] = substrate: C=C1C[C@@H]2[C@H](CC[C@]3(C)C(=O)CC[C@@H]23)[C@@]2(C)C=CC(=O)C=C12; experiment: cells, lysate or membranes named; settings: other: CYP2C8*3; normalized to relative CYP450 content; pH 7.4; 37.0 °C

Sequence of CYP2C9 (P11712 whole entry): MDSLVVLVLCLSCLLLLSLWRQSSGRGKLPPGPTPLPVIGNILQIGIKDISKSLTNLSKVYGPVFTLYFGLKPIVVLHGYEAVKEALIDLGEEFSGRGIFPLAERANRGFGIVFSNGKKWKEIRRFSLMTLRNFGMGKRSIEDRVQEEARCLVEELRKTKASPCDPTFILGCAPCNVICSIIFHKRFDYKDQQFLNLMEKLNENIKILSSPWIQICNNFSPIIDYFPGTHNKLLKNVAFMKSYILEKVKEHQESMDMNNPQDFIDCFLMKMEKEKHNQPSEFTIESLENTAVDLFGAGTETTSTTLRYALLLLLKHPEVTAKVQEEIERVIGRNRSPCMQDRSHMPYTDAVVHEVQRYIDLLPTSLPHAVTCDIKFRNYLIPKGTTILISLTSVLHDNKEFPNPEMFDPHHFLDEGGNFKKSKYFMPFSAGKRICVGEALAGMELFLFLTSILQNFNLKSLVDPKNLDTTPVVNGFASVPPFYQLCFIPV

Molecule: C[C@]12C=CC(=O)C=C1C(CO)=C[C@@H]1[C@@H]2CC[C@]2(C)C(=O)CC[C@@H]12 [6‐HME, 6‐hydroxymethylandrosta‐1,4,6‐triene‐3,17‐dione]
- secondary metabolite formation [1]: not observed

Molecule: C=C1C[C@H]2[C@@H]3CC[C@@H](O)[C@@]3(C)CC[C@@H]2[C@@]2(C)C=CC(=O)C=C12 [17α‐DHE, 17α‐hydroxy‐6‐methyleneandrosta‐1,4‐dien‐3‐one]
- secondary metabolite formation [1]: not observed

Molecule: C=C1C[C@H]2[C@@H]3CC[C@H](O)[C@@]3(C)CC[C@@H]2[C@@]2(C)C=CC(=O)C=C12 [17β‐DHE, 17β‐hydroxy‐6‐methyleneandrosta‐1,4‐dien‐3‐one]
- secondary metabolite formation [1]: not observed
- glucuronidation (V max/K M) lower in UGT2B17‐null homozygotes (*2/*2) compared to wild‐type homozygotes (*1/*1) [2]: 36 fold

Molecule: CCc1cccc2cc(C(O)CNC(C)(C)C)oc12 (stereo not drawn) [bufuralol]
- decrease in substrate affinity [3]: two‐fold

Molecule: COCc1c(C(C)C)nc(C(C)C)c(/C=C/[C@@H](O)C[C@@H](O)CC(=O)O)c1-c1ccc(F)cc1 [cerivastatin]
- increase of combined clearance of the M‐1 and M‐23 cerivastatin metabolites compared to wild‐type [4]: approximately 2.5 fold
- increase in the sum of cerivastatin metabolite clearance [5]: 53%

Molecule: C=C1C[C@@H]2[C@H](CC[C@]3(C)C(=O)CC[C@@H]23)[C@@]2(C)C=CC(=O)C=C12 [exemestane, 6‐methyleneandrosta‐1,4‐diene‐3,17‐dione]
- CLINT ([6]; CYP2D6*10, V max/K M): 38 nL/min/mg
- V max ([6]; CYP2D6*10, normalized to relative CYP450 content): 39 ± 6 pmol/min/mg
- increase of the K M value for EXE substrate ([6]; CYP2D6*10 vs CYP2D6*1): 82%
- decrease in clearance compared to CYP2D6*1 ([6]; human, microsomes, pH 7.4): 56%
- CLINT [7]: 27 nL/min/mg
- CLINT [8]: 194 nL/min/mg

Molecule: CC(=O)N1CCN(c2ccc(OCC3COC(Cn4ccnc4)(c4ccc(Cl)cc4Cl)O3)cc2)CC1 (stereo not drawn) [ketoconazole]
- effect on 6‐HME formation [9]: strongly inhibits

B1: CYP2C8^Arg139Lys, Lys399Arg (Homo sapiens; K399R/R139K) (protein)
chain: MEPFVVLVLCLSFMLLFSLWRQSCRRRKLPPGPTPLPIIGNMLQIDVKDICKSFTNFSKVYGPVFTVYFGMNPIVVFHGYEAVKEALIDNGEEFSGRGNSPISQRITKGLGIISSNGKRWKEIRRFSLTTLRNFGMGKKSIEDRVQEEAHCLVEELRKTKASPCDPTFILGCAPCNVICSVVFQKRFDYKDQNFLTLMKRFNENFRILNSPWIQVCNNFPLLIDCFPGTHNKVLKNVALTRSYIREKVKEHQASLDVNNPRDFIDCFLIKMEQEKDNQKSEFNIENLVGTVADLFVAGTETTSTTLRYGLLLLLKHPEVTAKVQEEIDHVIGRHRSPCMQDRSHMPYTDAVVHEIQRYSDLVPTGVPHAVTTDTKFRNYLIPKGTTIMALLTSVLHDDREFPNPNIFDPGHFLDKNGNFKKSDYFMPFSAGKRICAGEGLARMELFLFLTTILQNFNLKSVDDLKNLNTTAVTKGIVSLPPSYQICFIPV
- Vmax [10]: 0.000144 µmol/min/mg
